# Source: US20050009894A1 (Aventis Pharma S.A., priority 2001, published 2005)
# Molecular target: T1, human KDR enzyme (Homo sapiens, UniProt P35968)
# T1 construct: The cytoplasmic domain of human KDR enzyme is cloned in the form of a GST fusion; GST; made in house; host or cells: SF21 insect cells (baculovirus, pFastBac)
# Assay: Phosphorylation of the substrate PLCγ by the enzyme KDR in vitro (flashplate technique)
# Type: biochemical
# Conditions: Table VII, degrees of activity by IC50 range; read-out: Activity
# Procedure, shortened: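 GST-fused human KDR cytoplasmic domain (Sf21 baculovirus, ~60% pure; 100 ng/well) phosphorylating 2 μg GST-PLCγ SH2-SH3 fragment in MOPS pH 7.2 with MgCl2/MnCl2, 1 h at 37° C. Started with γ33P-ATP plus cold ATP (2 μM in start solution); flashplate radioactivity. % inhibition vs no-compound control; IC50 from dose-response curves.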
# T1 sequence (P35968 786-1356 limits assumed): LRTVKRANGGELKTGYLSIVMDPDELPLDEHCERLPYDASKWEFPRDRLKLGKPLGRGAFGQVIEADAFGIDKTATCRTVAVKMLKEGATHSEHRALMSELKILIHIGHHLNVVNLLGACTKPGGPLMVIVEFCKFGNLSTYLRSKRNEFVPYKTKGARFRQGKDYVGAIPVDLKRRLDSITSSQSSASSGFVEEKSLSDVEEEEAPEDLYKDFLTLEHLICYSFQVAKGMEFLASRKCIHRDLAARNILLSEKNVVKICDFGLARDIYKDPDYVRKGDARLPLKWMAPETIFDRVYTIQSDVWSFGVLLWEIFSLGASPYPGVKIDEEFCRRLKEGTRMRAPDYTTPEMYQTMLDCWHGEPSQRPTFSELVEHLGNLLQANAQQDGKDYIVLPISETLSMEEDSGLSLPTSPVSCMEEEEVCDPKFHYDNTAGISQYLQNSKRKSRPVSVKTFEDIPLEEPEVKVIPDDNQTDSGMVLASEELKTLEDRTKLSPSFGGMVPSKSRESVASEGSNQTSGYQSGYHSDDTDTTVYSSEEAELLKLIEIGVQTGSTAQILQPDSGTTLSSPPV
row,Compound,IC50
1,"O=C(NCc1csc2ccc(Cl)cc12)c1ccc2[nH]c(-c3n[nH]c4ccccc34)nc2c1 [Example 60, 2-(1H-Indazol-3-yl)-1H-benzoimidazole-5-carboxylic acid (5-chloro-benzo[b]thiophen-3-ylmethyl)-amide]",> 3 µM
2,"O=C(NCc1cccc(C(F)(F)F)c1)c1ccc2[nH]c(-c3n[nH]c4ccccc34)nc2c1 [Example 61, 2-(1H-Indazol-3-yl)-1H-benzoimidazole-5-carboxylic acid 3-trifluoromethyl-benzylamide]",> 3 µM
3,"O=C(NCc1c(F)cc(Cl)cc1Cl)c1ccc2[nH]c(-c3n[nH]c4ccccc34)nc2c1 [Example 177, 2-(1H-Indazol-3-yl)-1H-benzoimidazole-5-carboxylic acid (2,4-dichloro-6-fluoro-benzyl)amide]",< 0.3 µM
4,"Cc1cc(C)cc(CNC(=O)c2ccc3[nH]c(-c4n[nH]c5ccccc45)nc3c2)c1 [Example 69, 2-(1H-Indazol-3-yl)-1H-benzoimidazole-5-carboxylic acid 3,5-dimethyl-benzylamide]",0.3 to 3 µM
5,"O=C(NCc1ccc2c(c1)OCO2)c1ccc2[nH]c(-c3n[nH]c4ccccc34)nc2c1 [Example 41, 2-(1H-Indazol-3-yl)-1H-benzoimidazole-5-carboxylic acid (benzo[1,3]dioxole-5-ylmethyl)-amide]",0.3 to 3 µM
6,"O=C(NCc1ccc(Br)cc1F)c1ccc2[nH]c(-c3n[nH]c4ccccc34)nc2c1 [Example 157, 2-(1H-Indazol-3-yl)-1H-benzoimidazole-5-carboxylic acid 4-bromo-2-fluoro-benzylamide]",< 0.3 µM
7,"O=C(NCc1cccc(C(F)(F)F)c1)c1cccc2nc(-c3n[nH]c4ccccc34)[nH]c12 [Example 88, 2-(1H-Indazol-3-yl)-3H-benzoimidazole-4-carboxylic acid 3-trifluoromethyl-benzylamide]",> 3 µM
8,"Cc1ccc(F)c(CNC(=O)c2ccc3[nH]c(-c4n[nH]c5ccccc45)nc3c2)c1F [Example 166, 2-(1H-Indazol-3-yl)-1H-benzoimidazole-5-carboxylic acid 2,6-difluoro-3-methyl-benzylamide]",0.3 to 3 µM
9,"O=C(NCc1ccc(-c2cccs2)s1)c1ccc2[nH]c(-c3n[nH]c4ccccc34)nc2c1 [Example 57, 2-(1H-Indazol-3-yl)-1H-benzoimidazole-5-carboxylic acid ([2,2′]bithiophenyl-5-ylmethyl)-amide]",0.3 to 3 µM
10,"Cc1nn(C)cc1CNC(=O)c1ccc2[nH]c(-c3n[nH]c4ccccc34)nc2c1 [Example 43, 2-(1H-Indazol-3-yl)-1H-benzoimidazole-5-carboxylic acid (1,3-dimethyl-1H-pyrazol-4-ylmethyl)-amide]",0.3 to 3 µM
11,"C(=C\c1ccccc1)/COc1cc(-c2nc3ccccc3[nH]2)[nH]n1 [Example 182, 2-[5-(3-Phenyl-allyloxy)-2H-pyrazol-3-yl]-1H-benzoimidazole]",0.3 to 3 µM
12,"O=C(NCc1ccccc1[N+](=O)[O-])c1cccc2nc(-c3n[nH]c4ccccc34)[nH]c12 [Example 91, 2-(1H-Indazol-3-yl)-3H-benzoimidazole-4-carboxylic acid 2-nitro-benzylamide]",0.3 to 3 µM
13,"O=C(NCCc1ccccc1)c1cccc2nc(-c3n[nH]c4ccccc34)[nH]c12 [Example 96, 2-(1H-Indazol-3-yl)-3H-benzoimidazole-4-carboxylic acid phenethyl-amide]",> 3 µM
14,"c1ccc2[nH]c(-c3cc(OCCN4CCCCC4)n[nH]3)nc2c1 [Example 196, 2-[5-(2-Piperidin-1-yl-ethoxy)-2H-pyrazol-3-yl]-1H-benzoimidazole]",> 3 µM
15,"CN1CCN(C(=O)c2ccc3[nH]c(-c4n[nH]c5ccccc45)nc3c2)CC1 [Example 151, [2-(1H-Indazol-3-yl)-1H-benzoimidazol-5-yl]-(4-methyl-piperazin-1-yl)-methanone]",0.3 to 3 µM
16,"O=C(NCc1ccc2c(c1)CCO2)c1ccc2[nH]c(-c3n[nH]c4ccccc34)nc2c1 [Example 58, 2-(1H-Indazol-3-yl)-1H-benzoimidazole-5-carboxylic acid (2,3-dihydro-benzofuran-5-ylmethyl)-amide]",< 0.3 µM

# Now from value to compound:
row,IC50,Compound
1,0.3 to 3 µM,"O=C(NCc1ccc(F)cc1)c1ccc2[nH]c(-c3n[nH]c4ccccc34)nc2c1 [Example 170, 2-(1H-Indazol-3-yl)-1H-benzoimidazole-5-carboxylic acid 4-fluoro-benzylamide]"
2,> 3 µM,"O=C(COc1cc(-c2nc3ccccc3[nH]2)[nH]n1)c1ccc(-c2ccccc2)cc1 [Example 200, 2-[5-(1H-Benzoimidazol-2-yl)-1H-pyrazol-3-yloxy]-1-biphenyl-4-yl-ethanone]"
3,0.3 to 3 µM,"COc1cccc(-c2ccc3nc(-c4[nH]nc5ccccc45)[nH]c3c2)c1 [Example 114, 3-[6-(3-Methoxy-phenyl)-1H-benzoimidazol-2-yl]-2H-indazole]"
4,0.3 to 3 µM,"c1coc(-c2ccc3nc(-c4[nH]nc5ccccc45)[nH]c3c2)c1 [Example 142, 3-(6-Furan-2-yl-1H-benzoimidazol-2-yl)-2H-indazole]"
5,0.3 to 3 µM,"CC(C)c1ccc(-c2ccc3nc(-c4[nH]nc5ccccc45)[nH]c3c2)cc1 [Example 144, 3-[6-(4-Isopropyl-phenyl)-1H-benzoimidazol-2-yl]-2H-indazole]"
6,0.3 to 3 µM,"c1ccc2c(-c3nc4ccc(-c5ccc6c(c5)OCO6)cc4[nH]3)[nH]nc2c1 [Example 117, 3-(6-Benzo[1,3]dioxole-5-yl-1H-benzoimidazol-2-yl)-2H-indazole]"
7,> 3 µM,"FC(F)(F)c1ccc(-c2ccc3nc(-c4[nH]nc5ccccc45)[nH]c3c2)cc1 [Example 112, 3-[6-(4-Trifluoromethyl-phenyl)-1H-benzoimidazol-2-yl]-2H-indazole]"
8,< 0.3 µM,"NS(=O)(=O)c1ccc(CNC(=O)c2ccc3[nH]c(-c4n[nH]c5ccccc45)nc3c2)cc1 [Example 28, 2-(1H-Indazol-3-yl)-1H-benzoimidazole-5-carboxylic acid 4-(aminosulpnonyl)benzylamide]"
9,> 3 µM,"c1ccc(-c2ccc(-c3ccc4nc(-c5[nH]nc6ccccc56)[nH]c4c3)cc2)cc1 [Example 106, 3-(6-Biphenyl-4-yl-1H-benzoimidazol-2-yl)-2H-indazole]"
10,0.3 to 3 µM,"COc1ccc(-c2ccc3nc(-c4[nH]nc5ccccc45)[nH]c3c2)cc1OC [Example 120, 3-[6-(3,4-Dimethoxy-phenyl)-1H-benzoimidazol-2-yl]-2H-indazole]"
11,> 3 µM,"FC(F)(F)Oc1ccc(-c2ccc3nc(-c4[nH]nc5ccccc45)[nH]c3c2)cc1 [Example 124, 3-[6-(4-Trifluoromethoxy-phenyl)-1H-benzoimidazol-2-yl]-2H-indazole]"
12,0.3 to 3 µM,"Clc1cccc(-c2ccc3nc(-c4[nH]nc5ccccc45)[nH]c3c2)c1 [Example 113, 3-[6-(3-Chloro-phenyl)-1H-benzoimidazol-2-yl]-2H-indazole]"
13,< 0.3 µM,"O=C(NCc1ccc(Cl)cc1Cl)c1ccc2[nH]c(-c3n[nH]c4ccccc34)nc2c1 [Example 167, 2-(1H-Indazol-3-yl)-1H-benzoimidazole-5-carboxylic acid 2,4-dichloro-benzylamide]"
14,> 3 µM,"CC(C)(C)c1ccc(COc2cc(-c3nc4ccccc4[nH]3)[nH]n2)cc1 [Example 190, 2-[5-(4-tert-Butyl-benzyloxy)-2H-pyrazol-3-yl]-1H-benzoimidazole]"
15,> 3 µM,"c1ccc(-c2ccc3nc(-c4[nH]nc5ccccc45)[nH]c3c2)cc1 [Example 97, 3-(6-Phenyl-1H-benzimidazol-2-yl)-2H-indazole]"
16,0.3 to 3 µM,"CN(C)c1ccc(CNC(=O)c2ccc3[nH]c(-c4n[nH]c5ccccc45)nc3c2)cc1 [Example 35, 2-(1H-Indazol-3-yl)-1H-benzoimidazole-5-carboxylic acid 4-dimethylamino-benzylamide]"
17,0.3 to 3 µM,"Oc1cccc(-c2ccc3nc(-c4[nH]nc5ccccc45)[nH]c3c2)c1 [Example 121, 3-[2-(2H-Indazol-3-yl)-3H-benzoimidazol-5-yl]-phenol]"
18,> 3 µM,"Cc1ccc(-c2ccc3nc(-c4[nH]nc5ccccc45)[nH]c3c2)cc1 [Example 107, 3-(6-p-Tolyl-1H-benzoimidazol-2-yl)-2H-indazole]"
19,0.3 to 3 µM,"CCCC/C=C/c1ccc2nc(-c3[nH]nc4ccccc34)[nH]c2c1 [Example 119, 3-(6-Hex-1-enyl-1H-benzoimidazol-2-yl)-2H-indazole]"
20,< 0.3 µM,"O=C(NCc1ccc(Br)cc1)c1ccc2[nH]c(-c3n[nH]c4ccccc34)nc2c1 [Example 30, 2-(1H-Indazol-3-yl)-1H-benzoimidazole-5-carboxylic acid 4-bromo-benzylamide]"
21,0.3 to 3 µM,"Cc1cccc(-c2ccc3nc(-c4[nH]nc5ccccc45)[nH]c3c2)c1 [Example 108, 3-(6-m-Tolyl-1H-benzoimidazol-2-yl)-2H-indazole]"
22,> 3 µM,"CCSc1ccc(-c2ccc3nc(-c4[nH]nc5ccccc45)[nH]c3c2)cc1 [Example 134, 3-[6-(4-Ethylsulfanyl-phenyl)-1H-benzoimidazol-2-yl]-2H-indazole]"

# Same assay, conditions: read-out: IC50 (μM) on inhibition of the phosphory-lation of PLCγ by KDR
row,Compound,IC50
1,"Cc1cc(-c2nc3cc(C)c(C)cc3[nH]2)[nH]n1 [Example 20, 5,6-Dimethyl-2-(5-methyl-2H-pyrazol-3-yl)-1H-benzimidazole]",3.4 µM
2,"O=C(NCc1ccco1)c1ccc2[nH]c(-c3n[nH]c4ccccc34)nc2c1 [Example 12, 2-(1H-Indazol-3-yl)-1H-benzimidazole-5-carboxylic acid N-(2-furfuryl)amide]",0.16 µM
3,"COC(=O)c1ccc2nc(-c3n[nH]c4ccccc34)[nH]c2c1 [Example 14, Methyl 2-(1H-indazol-3-yl)-3H-benzimidazole-5-carboxylate]",1.2 µM
